Laboratory results: patent US20240247015A1, “PHOSPHORUS DERIVATIVES AS NOVEL SOS1 INHIBITORS” (BAYER AKTIENGESELLSCHAFT, priority 2021, published 2024)

Target: interaction of human SOS1 (SOS1) with human K-RasG12C (Homo sapiens (Human), UniProt Q07889)
Experiment: Biochemical assay: hK-RasG12C interaction assay with hSOS1 (HTRF)
Format: binding
Conditions: GST-hK-RasG12C with His-hSOS1, 60 min incubation at 20° C., mean, read-out: K-RasG12C - SOS interaction assay IC50 (mean)
Summary of the method: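 Compounds, duplicates at 11 concentrations from 0.073 nM to 20 µM, were preincubated 2 min with 10 nM GST-hK-RasG12C, then 20 nM His-hSOS1 was added, all at 20 °C. After 60 min, 665/620 nm HTRF ratio normalized to DMSO and SOS1-free controls; IC50 by 4-parameter fit.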

interaction of human SOS1 (SOS1) with human K-RasG12C, sequence (Q07889 564-1049 limits assumed): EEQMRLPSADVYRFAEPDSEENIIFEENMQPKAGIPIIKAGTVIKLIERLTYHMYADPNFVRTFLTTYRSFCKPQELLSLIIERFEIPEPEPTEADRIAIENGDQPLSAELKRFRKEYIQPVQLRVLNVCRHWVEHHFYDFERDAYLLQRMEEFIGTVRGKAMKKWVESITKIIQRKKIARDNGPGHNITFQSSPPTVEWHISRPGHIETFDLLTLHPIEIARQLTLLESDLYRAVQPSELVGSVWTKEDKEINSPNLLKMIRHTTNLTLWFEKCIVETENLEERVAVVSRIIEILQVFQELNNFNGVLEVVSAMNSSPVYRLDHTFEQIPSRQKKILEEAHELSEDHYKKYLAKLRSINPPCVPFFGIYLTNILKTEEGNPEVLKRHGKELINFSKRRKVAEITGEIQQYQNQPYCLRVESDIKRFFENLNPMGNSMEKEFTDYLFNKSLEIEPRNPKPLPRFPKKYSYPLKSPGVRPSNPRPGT

IC50 [nM]	Structure (SMILES)
17.5	COc1nc2nc(C)nc(N[C@H](C)c3cccc(C(F)(F)F)c3C)c2cc1P(C)(C)=O [Example 101, 6-(dimethylphosphoryl)-7-methoxy-2-methyl-N-{(1R)-1-[2-methyl-3-(trifluoromethyl)phenyl]ethyl}pyrido[2,3-d]pyrimidin-4-amine]
80.2	Cc1nc(N[C@H](C)c2cccc(C(F)(F)F)c2C)c2cc(P(=O)(C(C)C)C(C)C)c(C)nc2n1 [Example 102, 6-[di(propan-2-yl)phosphoryl]-2,7-dimethyl-N-{(1R)-1-[2-methyl-3-(trifluoromethyl)phenyl]ethyl}pyrido[2,3-d]pyrimidin-4-amine]
14.2	CCP(=O)(CC)c1cnc2nc(C)nc(N[C@H](C)c3cccc(C(F)(F)C(C)(C)O)c3F)c2c1 [Example 103, 1-{3-[(1R)-1-{[6-(diethylphosphoryl)-2-methylpyrido[2,3-d]pyrimidin-4-yl]amino}ethyl]-2-fluorophenyl}-1,1-difluoro-2-methylpropan-2-ol]
18.8	Cc1nc(N[C@H](C)c2cccc(C(F)(F)F)c2C)c2cc(P3(=O)CCCC3)ccc2n1 [Example 104, 1-[2-methyl-4-{{(1R)-1-[2-methyl-3-(trifluoromethyl)phenyl]ethyl}amino)quinazolin-6-yl]-1lambda^5-phospholan-1-one]
117	Cc1nc(N[C@H](C)c2cccc(C(F)(F)F)c2C)c2cc(P3(=O)CCN(Cc4ccccc4)CC3)ccc2n1 [Example 105, 1-benzyl-4-[2-methyl-4-({(1R)-1-[2-methyl-3-(trifluoromethyl)phenyl]ethyl}amino)quinazolin-6-yl]-1,4lambda^5-azaphosphinan-4-one]
16.1	Cc1nc(N[C@H](C)c2cccc(C(F)(F)F)c2C)c2cc(P(C)(C)=O)ccc2n1 [Example 106, 6-(dimethylphosphoryl)-2-methyl-N-{(1R)-1-[2-methyl-3-(trifluoromethyl)phenyl]ethyl}quinazolin-4-amine]
20.5	Cc1nc(N[C@H](C)c2cccc(C(F)F)c2F)c2cc(P3(=O)CCCC3)ncc2n1 [Example 107, 1-[4-{{(1R)-1-[3-(difluoromethyl)-2-fluorophenyl]ethyl}amino)-2-methylpyrido[3,4-d]pyrimidin-6-yl]-1lambda^5-phospholan-1-one]
153	Cc1nc(N[C@H](C)c2cccc(C(F)F)c2F)c2cc(P(=O)(C(C)C)C(C)C)ncc2n1 [Example 108, N-{(1R)-1-[3-(difluoromethyl)-2-fluorophenyl]ethyl}-6-[di(propan-2-yl)phosphoryl]-2-methylpyrido[3,4-d]pyrimidin-4-amine]
33.3	Cc1nc(N[C@H](C)c2cccc(C(F)(F)C(=O)C(C)C)c2F)c2cc(P(C)(C)=O)ncc2n1 [Example 109, 1-{3-[(1R)-1-{[6-(dimethylphosphoryl)-2-methylpyrido[3,4-d]pyrimidin-4-yl]amino}ethyl]-2-fluorophenyl}-1,1-difluoro-3-methylbutan-2-one]
56.8	Cc1nc(N[C@H](C)c2cccc(C(F)(F)C(=O)C(C)(C)C)c2F)c2cc(P(C)(C)=O)ncc2n1 [Example 110, 1-{3-[(1R)-1-{[6-(dimethylphosphoryl)-2-methylpyrido[3,4-d]pyrimidin-4-yl]amino}ethyl]-2-fluorophenyl}-1,1-difluoro-3,3-dimethylbutan-2-one]
66.5	Cc1nc(N[C@H](C)c2cccc(C(F)F)c2F)c2cc(P(C)(=O)C(C)C)ncc2n1 (stereo partly drawn) [Example 114, N-{(1R)-1-[3-(difluoromethyl)-2-fluorophenyl]ethyl}-2-methyl-6-[methyl(propan-2-yl)phosphoryl]pyrido[3,4-d]pyrimidin-4-amine]
56.9	CCP(C)(=O)c1cc2c(N[C@H](C)c3cccc(C(F)F)c3F)nc(C)nc2cn1 (stereo partly drawn) [Example 117, N-{(1R)-1-[3-(difluoromethyl)-2-fluorophenyl]ethyl}-6-[ethyl(methyl)phosphoryl]-2-methylpyrido[3,4-d]pyrimidin-4-amine]
36.7	Cc1nc(N[C@H](C)c2cccc(C(F)(F)F)c2Cl)c2cc(P(C)(C)=O)ncc2n1 [Example 120, N-{(1R)-1-[2-chloro-3-(trifluoromethyl)phenyl]ethyl}-6-(dimethylphosphoryl)-2-methylpyrido[3,4-d]pyrimidin-4-amine]
87.1	COC(C)(C)C(F)(F)c1cccc([C@@H](C)Nc2nc(C)nc3cnc(P(C)(C)=O)cc23)c1F [Example 121, N-{(1R)-1-[3-(1,1-difluoro-2-methoxy-2-methylpropyl)-2-fluorophenyl]ethyl}-6-(dimethylphosphoryl)-2-methylpyrido[3,4-d]pyrimidin-4-amine]
62.6	COC(C)(C)C(F)(F)c1cccc([C@@H](C)Nc2nc(C)nc3cnc(P4(=O)CCCC4)cc23)c1F [Example 122, 1-[4-({(1R)-1-[3-(1,1-difluoro-2-methoxy-2-methylpropyl)-2-fluorophenyl]ethyl}amino)-2-methylpyrido[3,4-d]pyrimidin-6-yl]-1lambda^5-phospholan-1-one]
59	CCP(=O)(CC)c1cc2c(N[C@H](C)c3cccc(C(F)(F)C(C)(C)O)c3F)nc(C)nc2cn1 [Example 123, 1-{3-[(1R)-1-{[6-(diethylphosphoryl)-2-methylpyrido[3,4-d]pyrimidin-4-yl]amino}ethyl]-2-fluorophenyl}-1,1-difluoro-2-methylpropan-2-ol]
16.7	Cc1nc(N[C@H](C)c2cccc(C(F)(F)CO)c2F)c2cc(P(C)(C)=O)nc(C)c2n1 [Example 124, 2-{3-[(1R)-1-{[6-(dimethylphosphoryl)-2,8-dimethylpyrido[3,4-d]pyrimidin-4-yl]amino}ethyl]-2-fluorophenyl}-2,2-difluoroethan-1-ol]
44.3	Cc1nc(N[C@H](C)c2cccc(C(F)F)c2F)c2cc(P(C)(C)=O)c(C(F)(F)F)nc2n1 [Example 125, N-{(1R)-1-[3-(difluoromethyl)-2-fluorophenyl]ethyl}-6-(dimethylphosphoryl)-2-methyl-7-(trifluoromethyl)pyrido[2,3-d]pyrimidin-4-amine]
9.24	Cc1nc(N[C@H](C)c2cccc(C(F)F)c2F)c2cc(P3(=O)CCCC3)c(C)nc2n1 [Example 126, 1-[4-{{(1R)-1-[3-(difluoromethyl)-2-fluorophenyl]ethyl}amino)-2,7-dimethylpyrido[2,3-d]pyrimidin-6-yl]-1lambda^5-phospholan-1-one]
23.4	Cc1nc(N[C@H](C)c2cccc(C(F)F)c2F)c2cc(P3(=O)CCCC3)ccc2n1 [Example 127, 1-[4-{{(1R)-1-[3-(difluoromethyl)-2-fluorophenyl]ethyl}amino)-2-methylquinazolin-6-yl]-1lambda^5-phospholan-1-one]
20.9	Cc1nc(N[C@H](C)c2cccc(C(F)F)c2F)c2cc(P(C)(C)=O)ccc2n1 [Example 128, N-{(1R)-1-[3-(difluoromethyl)-2-fluorophenyl]ethyl}-6-(dimethylphosphoryl)-2-methylquinazolin-4-amine]
132	Cc1nc(N[C@H](C)c2cccc(C(F)F)c2F)c2cc(P(=O)(C(C)C)C(C)C)c(C)nc2n1 [Example 129, N-{(1R)-1-[3-(difluoromethyl)-2-fluorophenyl]ethyl}-6-[di(propan-2-yl)phosphoryl]-2,7-dimethylpyrido[2,3-d]pyrimidin-4-amine]
